Reference: PMC3310271 (Journal of agricultural and food chemistry, 2011)
Where two headings read alike, the source gives them in different places.

Key:
[1] = tested on: colon cancer cells (HCT116); conditions: HCT116, among phenolic acids formed in TIM-2; cited from earlier work
diabetic C57b1/6J mice = conditions: gavage; cited from earlier work
[2] = TIM-1 gastrointestinal model bioaccessibility of maqui berry anthocyanins; format: in vitro ADME; conditions: for Total Bioaccessible Anthocyanin Amount: maqui berry extract in TIM-1, jejunal + ileal absorption over 4 h
[3] = first 4 h; cited from earlier work
[4] = maqui berry extract in TIM-1, over 4 h

Which Antiproliferative activity [1] does the source give for O=C(O)Cc1ccc(O)c(O)c1 [3,4-dihydroxyphenylacetic acid] here?
Its Antiproliferative activity is “antiproliferative activity”.

With COc1cc(-c2[o+]c3cc(O)cc(O)c3cc2O[C@@H]2O[C@H](CO)[C@@H](O)[C@H](O)[C@H]2O)cc(OC)c1O [malvidin-3-O-glucoside] as the compound, how does the “Effect on blood glucose levels” value (diabetic C57b1/6J mice) read?
The value was “significantly hypoglycemic”.

For “Cyanidin-3-sambubioside-5-glucoside + cyanidin3,5-diglucoside”, which “Total Bioaccessibility as % of intake” value [2] is on record?
The value was 17.84 +/− 2.61 % of intake.

With OC[C@H]1O[C@@H](Oc2cc(O)cc3[o+]c(-c4cc(O)c(O)c(O)c4)c(O[C@@H]4O[C@H](CO)[C@@H](O)[C@H](O)[C@H]4O[C@@H]4OC[C@@H](O)[C@H](O)[C@H]4O)cc23)[C@H](O)[C@@H](O)[C@@H]1O [Delphinidin-3-sambubioside-5-glucoside] as the compound, how does the “Recovery in Ileal Efflux as a % of Intake” value (“Recovery … as a % of Intake” for short) [2, 4] read?
Its value is 0.32+/− 0.32 % of intake.

For OC[C@H]1O[C@@H](Oc2cc3c(O[C@@H]4O[C@H](CO)[C@@H](O)[C@H](O)[C@H]4O)cc(O)cc3[o+]c2-c2cc(O)c(O)c(O)c2)[C@H](O)[C@@H](O)[C@@H]1O [Delphinidin-3,5-diglucoside], which “Total Bioaccessible Anthocyanin Amount” value [2] is on record?
The value was 1.17 ± 0.57 mg.

And the “Recovery … as a % of Intake” value [2, 4]?
Its value is 0.77 +/− 0.77 % of intake.

And the “Total Bioaccessibility as % of intake” value [2, 4]?
The value was 3.61 +/− 1.74 % of intake.

What about the “Total Bioaccessibility as % of intake” value ([2]; maqui berry extract in TIM-1, over 4 h, listed as delphinidin-3,5-diglucoside) of the same compound?
Its value is 3.6 % of intake.

What does the source list for OC[C@H]1O[C@@H](Oc2cc3c(O)cc(O)cc3[o+]c2-c2cc(O)c(O)c(O)c2)[C@H](O[C@@H]2OC[C@@H](O)[C@H](O)[C@H]2O)[C@@H](O)[C@@H]1O [Delphinidin-3-sambubioside]?
Total Bioaccessibility as % of intake [2]: 1.23 +/− 0.49 % of intake; Recovery in Ileal Efflux as a % of Intake [2, 4]: 0.26 +/− 0.24 % of intake

With OC[C@H]1O[C@@H](Oc2cc3c(O)cc(O)cc3[o+]c2-c2cc(O)c(O)c(O)c2)[C@H](O)[C@@H](O)[C@@H]1O [Delphinidin-3-glucoside] as the compound, how does the “Total Bioaccessible Anthocyanin Amount” value [2] read?
Its value is 3.02 ± 1.83 mg.

What about the “Recovery … as a % of Intake” value [2, 4] of the same compound?
Its value is 0.87 +/− 0.78 % of intake.

What about the “Total Bioaccessibility as % of intake” value [2, 4] of the same compound?
The value was 3.15 +/− 1.91 % of intake.

For OC[C@H]1O[C@@H](Oc2cc3c(O)cc(O)cc3[o+]c2-c2ccc(O)c(O)c2)[C@H](O)[C@@H](O)[C@@H]1O [Cyanidin-3-glucoside], which “Recovery in ileostomy patients” value [3] is on record?
The value was 1.5%.

And the “Total Bioaccessibility as % of intake” value [2]?
The value was 4.28 +/− 0.67 % of intake.
